Several values for one entry are separate records, joined by “and”; a condition that tells them apart may be missing. Identical values can stand only once.
Assays:
[1] = for vapor or sublimation pressure: Transpiration method
[2] = Molar enthalpy of transition or fusion; conditions: Crystal; DSC

CCCn1cnc2ccccc21 [1-propyl-1H-benzimidazole]
[1], Liquid
Conditions | vapor or sublimation pressure [kPa]
326.7 K | 0.00166
329.1 K | 0.00202
331.7 K | 0.00262
333.9 K | 0.00298
334.3 K | 0.00312
336.6 K | 0.00377
339.2 K | 0.0047
341.4 K | 0.00546
344.2 K | 0.00671
346.9 K | 0.00797
349.3 K | 0.00969
351.8 K | 0.01262
354.3 K | 0.01444
356.8 K | 0.01719
359.3 K | 0.01949
361.8 K | 0.02422
364.3 K | 0.02965
366.6 K | 0.03507
369.3 K | 0.0417
372.4 K | 0.05004
375.9 K | 0.06251

CCCCCn1cnc2ccccc21 [1-pentyl-1H-benzimidazole]
[1], Liquid
Conditions | vapor or sublimation pressure
324.7 K | 0.00028 kPa
329.1 K | 0.00041 kPa
332 K | 0.00054 kPa
335.1 K | 0.00073 kPa
338.3 K | 0.0009 kPa
341.2 K | 0.00118 kPa
342.2 K | 0.00124 kPa
344 K | 0.00158 kPa
347.3 K | 0.00203 kPa
350.1 K | 0.00245 kPa
350.3 K | 0.00238 kPa
353.2 K | 0.00303 kPa
353.3 K | 0.00329 kPa
356.2 K | 0.00402 kPa
356.6 K | 0.00437 kPa
359.4 K | 0.00534 kPa
361.7 K | 0.00609 kPa and 0.0063 kPa
364.3 K | 0.00768 kPa and 0.0074 kPa
366.7 K | 0.00884 kPa
369.7 K | 0.0109 kPa
372.8 K | 0.0129 kPa
375.8 K | 0.01595 kPa

CCn1cnc2ccccc21 [1-ethyl-1H-benzimidazole]
[1], Liquid
Conditions | vapor or sublimation pressure [kPa]
328.8 K | 0.00273
331.8 K | 0.00334
334.3 K | 0.0041
336.7 K | 0.00481
339.2 K | 0.00591
341.7 K | 0.00714
343.7 K | 0.00826
346.7 K | 0.01029
349.1 K | 0.01206
351.7 K | 0.01365
353.9 K | 0.01678
356.7 K | 0.01954
358.9 K | 0.02439
361.2 K | 0.02801
363.9 K | 0.03343
366.6 K | 0.03948
368.9 K | 0.04573
372.1 K | 0.05679
375.1 K | 0.06706

Cn1cnc2ccccc21 [1-methylbenzimidazole]
[1]
Conditions | Normal melting temperature [°C] | vapor or sublimation pressure [kPa]
300.7 K, Crystal | – | 0.0002
303.2 K, Crystal | – | 0.00026
305.6 K, Crystal | – | 0.00034
308.1 K, Crystal | – | 0.00046
311 K, Crystal | – | 0.00061
313.7 K, Crystal | – | 0.00082
314.2 K, Crystal | – | 0.00087
314.2 K, Liquid | – | 0.00115
316.6 K, Liquid | – | 0.00139
316.7 K, Crystal | – | 0.00112
319 K, Liquid | – | 0.00172
319.6 K, Crystal | – | 0.00154
321.5 K, Liquid | – | 0.00209
322.5 K, Crystal | – | 0.00213
324.5 K, Crystal | – | 0.00249
324.5 K, Liquid | – | 0.00278
325.5 K, Crystal | – | 0.0027
326.9 K, Crystal | – | 0.00316
326.9 K, Liquid | – | 0.00332
329.5 K, Liquid | – | 0.00402
331.5 K, Liquid | – | 0.0046
334.5 K, Liquid | – | 0.00598
335.9 K, Liquid | – | 0.00673
336.9 K, Liquid | – | 0.00709
337.5 K, Liquid | – | 0.00742
339.6 K, Liquid | – | 0.00868
341.6 K, Liquid | – | 0.01014
344.4 K, Liquid | – | 0.01267
347.2 K, Liquid | – | 0.0155
349.4 K, Liquid | – | 0.01858
351.8 K, Liquid | – | 0.02168
354.1 K, Liquid | – | 0.02462
354.4 K, Liquid | – | 0.0258
356.5 K, Liquid | – | 0.029
358.9 K, Liquid | – | 0.03371
361.3 K, Liquid | – | 0.0389
364 K, Liquid | – | 0.04752
366.8 K, Liquid | – | 0.0558
368.1 K, Liquid | – | 0.06162
369.4 K, Liquid | – | 0.06627
372.6 K, Liquid | – | 0.07877
374.5 K, Liquid | – | 0.08885
376 K, Liquid | – | 0.09738
Crystal, DTA | 60.1 | –

Conditions | Molar enthalpy of transition or fusion [kcal/mol]
[2] | 3.23

From the NIST ThermoML archive (doi:10.1021/je300312c)
